Test results published in patent publication US20160310571A1, “Pharmaceutical Composition Comprising Erythropoietin and Ceftriaxone and A Method for Treating Parkinson's Disease Dementia” (Chung Shan Medical University, priority 2015, published 2016).

What was measured:
Format in all cases: in vivo, rat
[1] = tested on: DAergic neuron in the SNc; assay: Histopathological analysis: tyrosine hydroxylase staining of SNc sections; conditions: 14th day, vs group A1 (saline)
Experimental: (§1) Wistar male rats (12 week-old, weight ˜400 grams) purchased from the National Laboratory Animal Center (R.O.C.) are used. The rats are housed in an animal room with constant temperature of 24±1° C., where is kept on a 12-hours light and 12-hours dark cycle. The rats are housed and kept on free diet and water.
(§2) On the 1st day, the rats are anesthetized, followed by bilaterally MPTP (1-methyl-4-phenyl-1,2,3,6-tetrahydropyridine hydrochloride)-infusion into the substantia nigra pars compacta (SNc). The rats with cognitive impairments on working memory and object recognition are used as the PDD rats (Ho et al., Behav Brain Res 268: 177-184, 2014).
(§3) Starting on the 1st day, referring to TABLE 1, saline (group Al), erythropoietin (groups A2 & A3) and ceftriaxone (groups A4 & A5) are administrated to the PDD rats in the corresponding groups. Erythropoietin and ceftriaxone are sequentially administrated to the PDD rats of group A6 with a time interval of 30 minutes. Saline is also used to be administrated to the normal rats of group A0. Moreover, saline, erythropoietin and ceftriaxone are administrated for 14 days (from the 1st day to the 14th day).
(§4) On the 14th day, the rats of groups A0-A6 are sacrificed and the coronal sections are collected. The sections with SNc are used for tyrosine hydroxylase staining, while the sections with hippocampal CA1 area are used for Nissl staining. […]

PDD rats [2] = assay: Object recognition test in MPTP-induced PDD rats; conditions: 13th day
Experimental: as §1, §2
(§5) Starting on the 1st day, referring to TABLE 1, saline (group Al), erythropoietin (groups A2 & A3) and ceftriaxone (groups A4 & A5) are administrated to the PDD rats in the corresponding groups. […]
Recognition ability of the rats of groups A0-A6 is measured using the object recognition test (Ho et al., Behav Brain Res 268: 177-184, 2014). […]
On the 13th day, the rat under test “M” is first placed in the open box shown as FIG. 4a, and the time spent exploring the object O1 (TO1) and the total time spent exploring the objects O1, O2 & O3 (TO1+O2+O3) are recorded, respectively. The percentage of the exploration time spent on the object O1 is calculated as (TO1/TO1+O2+O3)*100%. […]

[3] = tested on: pyramidal neuron in the hippocampal CA1 area; assay: Histopathological analysis: Nissl staining of hippocampal CA1 sections; conditions: 14th day, vs group A1 (saline), p<0.001
Experimental: as §1, §2, §3, §4

PDD rats [4] = assay: T-maze test (working memory) in MPTP-induced PDD rats; conditions: test on 10th day, vs chance (50%)
Experimental: as §1, §2
as §5, with “groups. Erythropoietin and ceftriaxone are sequentially administrated to the PDD rats of group A6 with a time interval of 30 minutes.” for “groups.”
Working memory of the rats of groups A0-A6 is assessed using the T-maze test (Ho et al., Behav Brain Res 268: 177-184, 2014). […]
On the 10th day, a test session consisting 3 rounds, each of which is composed of a “forced run” and two “choice run”, is carried out. The number of the rewards “R” that the rat under test “M” get (% of correct response) in the 6 choice runs is recorded.

[5] = group A4, ceftriaxone 5 mg/kg/day, p<0.05

For `CO/N=C(\C(=O)N[C@@H]1C(=O)N2C(C(=O)O)=C(CSc3nc(=O)c(=O)[nH]n3C)CS[C@H]12)c1csc(N)n1` [ceftriaxone], the “density of DAergic neuron in the SNc” value [1, 5] was “recovery of DAergic neuron density in the SNc”, the “density of DAergic neuron in the SNc” value ([1]; group A5, ceftriaxone 10 mg/kg/day, p<0.01) was “recovery of DAergic neuron density in the SNc” and the “percentage of time exploring novel object O4 vs object O1 (recognition ability)” value (PDD rats [2]; group A4, ceftriaxone 5 mg/kg/day, p<0.001) was “can recognize the novel object O4 in the environment”. For the same molecule, the “percentage of time exploring novel object O4 vs object O1 (recognition ability)” value (PDD rats [2]; group A5, ceftriaxone 10 mg/kg/day, p<0.05) was “can recognize the novel object O4 in the environment”, the “percentage of the CA1 area occupied by the pyramidal neuron” value ([3]; group A4, ceftriaxone 5 mg/kg/day) was “recovery of pyramidal neuron density in the CA1 area” and the “percentage of the CA1 area occupied by the pyramidal neuron” value ([3]; group A5, ceftriaxone 10 mg/kg/day) was “recovery of pyramidal neuron density in the CA1 area”. The “percentage of correct response in T-maze test (working memory)” value (PDD rats [4]; [5]) was “slightly treatment on the cognitive impairment on working memory” and the “percentage of correct response in T-maze test (working memory)” value (PDD rats [4]; group A5, ceftriaxone 10 mg/kg/day, p<0.001) was “significant treatment on the cognitive impairment on working memory”.
